Data taken from patent publication US8722849B2, “Polypeptides” (Novo Nordisk A/S, priority 2011, dated 2014).
Starred links: 1 amine or outer side, 2 acyl side, 3 side chain; linkers in the order of their positions; H or OH if unused. Positions of bridges follow the written chain, without caps; N, C: chain ends. Residues, ends and D or L forms follow the SMILES beside them. *: point of attachment. C20 diacid = O=C(O)CCCCCCCCCCCCCCCCCCC(=O)*; C18 diacid = O=C(O)CCCCCCCCCCCCCCCCC(=O)*; γGlu = O=C(O)[C@H](CCC(=O)[*:2])N[*:1]

What was measured:
[1] = molecular target: T1, rat calcitonin (a) receptor (Rattus norvegicus, UniProt P32214); experiment: Assay (II)b functional cAMP FlashPlate assay, rat calcitonin receptor; format: cell-based; conditions: Table 11; read-out: CTa receptor rat EC50
T1 construct: expressed in transfected cells; host or cells: BHK tk'ts 13
T1 sequence (P32214 25-479 isoform P32214-2 limits assumed): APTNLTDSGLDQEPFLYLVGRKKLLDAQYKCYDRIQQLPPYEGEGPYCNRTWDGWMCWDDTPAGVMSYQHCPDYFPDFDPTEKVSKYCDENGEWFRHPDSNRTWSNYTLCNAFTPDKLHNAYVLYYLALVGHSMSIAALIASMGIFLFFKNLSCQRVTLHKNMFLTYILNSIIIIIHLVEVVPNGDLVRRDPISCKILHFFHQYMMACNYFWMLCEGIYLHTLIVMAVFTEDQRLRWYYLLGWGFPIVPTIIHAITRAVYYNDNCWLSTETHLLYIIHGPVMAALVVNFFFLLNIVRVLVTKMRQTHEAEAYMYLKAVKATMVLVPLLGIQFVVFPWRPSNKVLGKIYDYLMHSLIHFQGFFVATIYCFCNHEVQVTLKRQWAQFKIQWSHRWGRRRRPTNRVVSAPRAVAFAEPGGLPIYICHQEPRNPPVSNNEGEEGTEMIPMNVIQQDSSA
In short: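 cAMP accumulation in transiently transfected BHK tk'ts 13 cells, 100.000 cells/well, expressing rat calcitonin(a) receptor or its RAMP3 co-expression form (amylin 3(a)): 30 min stimulation with IBMX, 24 hours post-transfection. Readout by competition of cellular versus radiolabelled cAMP in FlashPlates, scintillation counted after 3 h.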

[2] = Assay (III) ThT fibrillation assay for physical stability; format: physicochemical
In short: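 Freshly prepared formulations, pH-adjusted, with 1 μM ThT; four or eight replicates incubated at 37 °C under 960 rpm orbital shaking. Fluorescence (ex 444/em 485 nm) read every 20 min; […]. Peptide concentration measured by RP-HPLC before and after the run.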

Row | Compound | EC50 [1] [nM] | ThT pH 4.0 lag time ([2]; ThT fibrillation assay) [h] | ThT pH 4.0 lag time (h) ([2]; ThT fibrillation assay) | ThT pH 4.0 lag time ([2]; Table 8) [h] | ThT pH 4.0 lag time ([2]; Table 9) [h]
1 | CC[C@H](C)[C@H](NC(=O)[C@@H]1CCCN1C(=O)CNC(=O)[C@H](Cc1ccccc1)NC(=O)[C@H](CC(N)=O)NC(=O)[C@H](CC(N)=O)NC(=O)[C@H](CO)NC(=O)[C@H](CO)NC(=O)[C@H](Cc1c[nH]cn1)NC(=O)[C@H](CCCNC(=N)N)NC(=O)[C@H](CC(C)C)NC(=O)[C@H](Cc1ccccc1)NC(=O)[C@H](CCC(=O)O)NC(=O)[C@H](C)NC(=O)[C@H](CC(C)C)NC(=O)[C@H](CCCNC(=N)N)NC(=O)[C@H](CCC(N)=O)NC(=O)[C@@H](NC(=O)[C@H](C)NC(=O)[C@@H]1CSSC[C@H](NC(=O)[C@H](CCCCN)NC(=O)CC[C@H](NC(=O)CCCCCCCCCCCCCCCCC(=O)O)C(=O)O)C(=O)N[C@@H](CC(N)=O)C(=O)N[C@@H]([C@@H](C)O)C(=O)N[C@@H](C)C(=O)N[C@@H]([C@@H](C)O)C(=O)N1)[C@@H](C)O)C(=O)N[C@@H](CC(C)C)C(=O)N1CCC[C@H]1C(=O)N1CCC[C@H]1C(=O)N[C@H](C(=O)N[C@@H](CC(N)=O)C(=O)N[C@H](C(=O)NCC(=O)N[C@@H](CO)C(=O)N[C@@H](Cc1c[nH]cn1)C(=O)N[C@H](C(=O)N[C@@H](Cc1ccc(O)cc1)C(N)=O)[C@@H](C)O)C(C)C)[C@@H](C)O [Example 61, N-alpha-[(S)-4-Carboxy-4-(17-carboxyheptadecanoylamino)butyryl]-[Glu14,Arg17,His35]-pramlintide] ({C18 diacid-γGlu}-KCNTATCATQRLAEFLRHSSNNFGPILPPTNVGSHTY-NH2; disulfide 2-7 (inferred)) | 2.36 | >45 | >45 | – | –
2 | CC[C@H](C)[C@H](NC(=O)[C@@H]1CCCN1C(=O)CNC(=O)[C@H](Cc1ccccc1)NC(=O)[C@H](CC(N)=O)NC(=O)[C@H](CC(N)=O)NC(=O)[C@H](CO)NC(=O)[C@H](CO)NC(=O)[C@H](Cc1c[nH]cn1)NC(=O)[C@H](Cc1c[nH]cn1)NC(=O)[C@H](CC(C)C)NC(=O)[C@H](Cc1ccccc1)NC(=O)[C@H](CCC(=O)O)NC(=O)[C@H](C)NC(=O)[C@H](CC(C)C)NC(=O)[C@H](CCCNC(=N)N)NC(=O)[C@H](CCC(N)=O)NC(=O)[C@@H](NC(=O)[C@H](C)NC(=O)[C@@H]1CSSC[C@H](NC(=O)[C@H](CCCCN)NC(=O)[C@H](CCC(=O)O)NC(=O)CC[C@H](NC(=O)CCCCCCCCCCCCCCCCC(=O)O)C(=O)O)C(=O)N[C@@H](CC(N)=O)C(=O)N[C@@H]([C@@H](C)O)C(=O)N[C@@H](C)C(=O)N[C@@H]([C@@H](C)O)C(=O)N1)[C@@H](C)O)C(=O)N[C@@H](CC(C)C)C(=O)N1CCC[C@H]1C(=O)N1CCC[C@H]1C(=O)N[C@H](C(=O)N[C@@H](CC(N)=O)C(=O)N[C@H](C(=O)NCC(=O)N[C@@H](CO)C(=O)N[C@@H](CC(N)=O)C(=O)N[C@H](C(=O)N[C@@H](Cc1ccc(O)cc1)C(N)=O)[C@@H](C)O)C(C)C)[C@@H](C)O [Example 42, N-alpha-[(S)-4-Carboxy-4-(17-carboxyheptadecanoylamino)butyryl]-Glu-[Glu14,His17]-pramlintide] ({C18 diacid-γGlu}-EKCNTATCATQRLAEFLHHSSNNFGPILPPTNVGSNTY-NH2; disulfide 3-8 (inferred)) | 2.43 | – | 7.3 | – | –
3 | CC[C@H](C)[C@H](NC(=O)[C@@H]1CCCN1C(=O)CNC(=O)[C@H](Cc1ccccc1)NC(=O)[C@H](CC(N)=O)NC(=O)[C@H](CC(N)=O)NC(=O)[C@H](CO)NC(=O)[C@H](CO)NC(=O)[C@H](Cc1c[nH]cn1)NC(=O)[C@H](Cc1c[nH]cn1)NC(=O)[C@H](CC(C)C)NC(=O)[C@H](Cc1ccccc1)NC(=O)[C@H](CCC(=O)O)NC(=O)[C@H](C)NC(=O)[C@H](CC(C)C)NC(=O)[C@H](CCCNC(=N)N)NC(=O)[C@H](CCC(N)=O)NC(=O)[C@@H](NC(=O)[C@H](C)NC(=O)[C@@H]1CSSC[C@H](NC(=O)[C@H](CCCCN)NC(=O)[C@H](CCC(=O)O)NC(=O)CC[C@H](NC(=O)CCCCCCCCCCCCCCCCCCC(=O)O)C(=O)O)C(=O)N[C@@H](CC(N)=O)C(=O)N[C@@H]([C@@H](C)O)C(=O)N[C@@H](C)C(=O)N[C@@H]([C@@H](C)O)C(=O)N1)[C@@H](C)O)C(=O)N[C@@H](CC(C)C)C(=O)N1CCC[C@H]1C(=O)N1CCC[C@H]1C(=O)N[C@H](C(=O)N[C@@H](CC(N)=O)C(=O)N[C@H](C(=O)NCC(=O)N[C@@H](CO)C(=O)N[C@@H](Cc1c[nH]cn1)C(=O)N[C@H](C(=O)N[C@@H](Cc1ccc(O)cc1)C(N)=O)[C@@H](C)O)C(C)C)[C@@H](C)O [Example 56, N-alpha-[(S)-4-Carboxy-4-(19-carboxynonadecanoylamino)butyryl]-Glu-[Glu14,His17,His35]-pramlintide] ({C20 diacid-γGlu}-EKCNTATCATQRLAEFLHHSSNNFGPILPPTNVGSHTY-NH2; disulfide 3-8 (inferred)) | 4.97 | – | 16 | – | –
4 | CC[C@H](C)[C@H](NC(=O)[C@@H]1CCCN1C(=O)CNC(=O)[C@H](Cc1ccccc1)NC(=O)[C@H](CC(N)=O)NC(=O)[C@H](CC(N)=O)NC(=O)[C@H](CO)NC(=O)[C@H](CO)NC(=O)[C@H](Cc1c[nH]cn1)NC(=O)[C@H](Cc1c[nH]cn1)NC(=O)[C@H](CC(C)C)NC(=O)[C@H](Cc1ccccc1)NC(=O)[C@H](CCC(=O)O)NC(=O)[C@H](C)NC(=O)[C@H](CC(C)C)NC(=O)[C@H](CCCNC(=N)N)NC(=O)[C@H](CCC(N)=O)NC(=O)[C@@H](NC(=O)[C@H](C)NC(=O)[C@@H]1CSSC[C@H](NC(=O)[C@H](Cc2c[nH]cn2)NC(=O)CC[C@H](NC(=O)CCCCCCCCCCCCCCCCC(=O)O)C(=O)O)C(=O)N[C@@H](CC(N)=O)C(=O)N[C@@H]([C@@H](C)O)C(=O)N[C@@H](C)C(=O)N[C@@H]([C@@H](C)O)C(=O)N1)[C@@H](C)O)C(=O)N[C@@H](CC(C)C)C(=O)N1CCC[C@H]1C(=O)N1CCC[C@H]1C(=O)N[C@H](C(=O)N[C@@H](CC(N)=O)C(=O)N[C@H](C(=O)NCC(=O)N[C@@H](CO)C(=O)N[C@@H](CC(N)=O)C(=O)N[C@H](C(=O)N[C@@H](Cc1ccc(O)cc1)C(N)=O)[C@@H](C)O)C(C)C)[C@@H](C)O [Example 48, N-alpha-[(S)-4-Carboxy-4-(17-carboxyheptadecanoylamino)butyryl]-[His1,Glu14,His17]-pramlintide] ({C18 diacid-γGlu}-HCNTATCATQRLAEFLHHSSNNFGPILPPTNVGSNTY-NH2; disulfide 2-7 (inferred)) | 0.375 | – | 9 | – | –
5 | CC[C@H](C)[C@H](NC(=O)[C@@H]1CCCN1C(=O)CNC(=O)[C@H](Cc1ccccc1)NC(=O)[C@H](CC(N)=O)NC(=O)[C@H](CC(N)=O)NC(=O)[C@H](CO)NC(=O)[C@H](CO)NC(=O)[C@H](Cc1c[nH]cn1)NC(=O)[C@H](CCCNC(=N)N)NC(=O)[C@H](CC(C)C)NC(=O)[C@H](Cc1ccccc1)NC(=O)[C@H](CCC(=O)O)NC(=O)[C@H](C)NC(=O)[C@H](CC(C)C)NC(=O)[C@H](CCCNC(=N)N)NC(=O)[C@H](CCC(N)=O)NC(=O)[C@@H](NC(=O)[C@H](C)NC(=O)[C@@H]1CSSC[C@H](NC(=O)CNC(=O)CC[C@H](NC(=O)CCCCCCCCCCCCCCCCCCC(=O)O)C(=O)O)C(=O)N[C@@H](CC(N)=O)C(=O)N[C@@H]([C@@H](C)O)C(=O)N[C@@H](C)C(=O)N[C@@H]([C@@H](C)O)C(=O)N1)[C@@H](C)O)C(=O)N[C@@H](CC(C)C)C(=O)N1CCC[C@H]1C(=O)N1CCC[C@H]1C(=O)N[C@H](C(=O)N[C@@H](CC(N)=O)C(=O)N[C@H](C(=O)NCC(=O)N[C@@H](CO)C(=O)N[C@@H](CC(N)=O)C(=O)N[C@H](C(=O)N1CCC[C@H]1C(N)=O)[C@@H](C)O)C(C)C)[C@@H](C)O [Example 88, N-alpha-[(S)-4-Carboxy-4-(19-carboxynonadecanoylamino)butyryl]-[Gly1,Glu14,Arg17,Pro37]-pramlintide] ({C20 diacid-γGlu}-GCNTATCATQRLAEFLRHSSNNFGPILPPTNVGSNTP-NH2; disulfide 2-7 (inferred); C-terminus assumed) | 0.37 | >45 | >45 | >45 | >45
